Test results: ChEMBL document CHEMBL3991601, “The target landscape of clinical kinase drugs” (Science, 2017)
The source made the active and inactive calls.

Columns and labels:
[1] = target: T1, AarF domain-containing protein kinase 1 (Homo sapiens, UniProt Q86TW2)
T1 sequence (Q86TW2 whole entry): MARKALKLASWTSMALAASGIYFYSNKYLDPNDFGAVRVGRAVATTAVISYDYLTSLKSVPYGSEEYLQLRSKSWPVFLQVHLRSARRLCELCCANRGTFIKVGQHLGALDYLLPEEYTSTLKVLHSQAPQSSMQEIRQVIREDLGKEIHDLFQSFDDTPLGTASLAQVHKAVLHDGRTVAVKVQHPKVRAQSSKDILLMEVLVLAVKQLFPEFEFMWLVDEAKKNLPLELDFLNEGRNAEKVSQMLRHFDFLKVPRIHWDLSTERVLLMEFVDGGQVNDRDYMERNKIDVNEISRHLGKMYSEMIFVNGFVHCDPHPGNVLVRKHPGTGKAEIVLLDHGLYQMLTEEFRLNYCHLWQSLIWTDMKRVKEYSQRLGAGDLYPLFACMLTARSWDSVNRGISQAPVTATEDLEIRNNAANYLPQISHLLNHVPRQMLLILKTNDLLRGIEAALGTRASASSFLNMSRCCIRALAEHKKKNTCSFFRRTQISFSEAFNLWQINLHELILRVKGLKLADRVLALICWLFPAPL

[2] = target: T2, ATP-dependent RNA helicase DHX30 (Homo sapiens, UniProt Q7L2E3)
T2 sequence (Q7L2E3 whole entry): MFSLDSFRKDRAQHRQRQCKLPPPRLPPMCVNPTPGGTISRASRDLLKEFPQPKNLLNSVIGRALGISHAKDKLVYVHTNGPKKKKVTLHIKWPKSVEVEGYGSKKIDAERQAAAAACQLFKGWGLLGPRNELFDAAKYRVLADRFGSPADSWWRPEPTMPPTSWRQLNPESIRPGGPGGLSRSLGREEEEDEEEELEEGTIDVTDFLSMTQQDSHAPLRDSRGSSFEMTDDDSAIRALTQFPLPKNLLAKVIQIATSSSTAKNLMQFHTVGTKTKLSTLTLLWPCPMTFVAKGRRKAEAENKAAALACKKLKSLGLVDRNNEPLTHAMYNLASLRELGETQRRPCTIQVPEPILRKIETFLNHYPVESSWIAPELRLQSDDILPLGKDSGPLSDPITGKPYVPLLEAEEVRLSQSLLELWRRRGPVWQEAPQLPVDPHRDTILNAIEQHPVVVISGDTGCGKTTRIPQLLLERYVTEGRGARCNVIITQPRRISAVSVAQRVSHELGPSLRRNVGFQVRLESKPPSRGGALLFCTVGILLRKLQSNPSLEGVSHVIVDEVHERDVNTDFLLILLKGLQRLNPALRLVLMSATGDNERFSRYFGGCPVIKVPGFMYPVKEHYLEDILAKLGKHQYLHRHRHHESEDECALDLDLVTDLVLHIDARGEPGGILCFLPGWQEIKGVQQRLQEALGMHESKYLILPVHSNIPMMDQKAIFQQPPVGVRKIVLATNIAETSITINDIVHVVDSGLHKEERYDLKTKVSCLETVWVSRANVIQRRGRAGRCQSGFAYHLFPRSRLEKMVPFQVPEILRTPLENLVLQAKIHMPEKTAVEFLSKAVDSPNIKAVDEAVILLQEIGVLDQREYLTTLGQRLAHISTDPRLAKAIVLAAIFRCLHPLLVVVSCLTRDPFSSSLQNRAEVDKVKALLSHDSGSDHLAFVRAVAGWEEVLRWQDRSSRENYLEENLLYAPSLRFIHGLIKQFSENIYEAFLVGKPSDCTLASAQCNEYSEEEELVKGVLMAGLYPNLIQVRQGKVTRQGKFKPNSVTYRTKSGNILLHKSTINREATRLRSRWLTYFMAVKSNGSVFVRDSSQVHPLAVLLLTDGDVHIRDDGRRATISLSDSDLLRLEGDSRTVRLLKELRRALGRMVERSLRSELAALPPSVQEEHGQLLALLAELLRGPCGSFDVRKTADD

[3] = target: T3, Membrane-associated tyrosine- and threonine-specific cdc2-inhibitory kinase (Homo sapiens, UniProt Q99640)
T3 sequence (Q99640 whole entry): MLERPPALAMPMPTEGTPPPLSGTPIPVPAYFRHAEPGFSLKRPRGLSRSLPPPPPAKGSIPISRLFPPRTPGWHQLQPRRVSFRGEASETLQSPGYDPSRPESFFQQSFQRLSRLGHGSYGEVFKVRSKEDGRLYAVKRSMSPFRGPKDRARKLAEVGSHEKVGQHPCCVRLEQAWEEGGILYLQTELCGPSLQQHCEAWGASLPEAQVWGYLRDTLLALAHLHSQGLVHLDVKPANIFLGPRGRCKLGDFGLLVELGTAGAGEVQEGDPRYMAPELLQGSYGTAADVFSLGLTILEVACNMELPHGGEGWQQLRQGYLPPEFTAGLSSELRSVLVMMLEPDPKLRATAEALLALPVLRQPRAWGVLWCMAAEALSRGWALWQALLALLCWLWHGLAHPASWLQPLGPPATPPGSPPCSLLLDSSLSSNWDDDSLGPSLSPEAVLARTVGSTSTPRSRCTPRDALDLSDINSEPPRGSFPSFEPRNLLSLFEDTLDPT

[4] = target: Tyrosine-protein kinase FRK (Homo sapiens, UniProt P42685)
Tyrosine-protein kinase FRK, sequence (P42685 whole entry): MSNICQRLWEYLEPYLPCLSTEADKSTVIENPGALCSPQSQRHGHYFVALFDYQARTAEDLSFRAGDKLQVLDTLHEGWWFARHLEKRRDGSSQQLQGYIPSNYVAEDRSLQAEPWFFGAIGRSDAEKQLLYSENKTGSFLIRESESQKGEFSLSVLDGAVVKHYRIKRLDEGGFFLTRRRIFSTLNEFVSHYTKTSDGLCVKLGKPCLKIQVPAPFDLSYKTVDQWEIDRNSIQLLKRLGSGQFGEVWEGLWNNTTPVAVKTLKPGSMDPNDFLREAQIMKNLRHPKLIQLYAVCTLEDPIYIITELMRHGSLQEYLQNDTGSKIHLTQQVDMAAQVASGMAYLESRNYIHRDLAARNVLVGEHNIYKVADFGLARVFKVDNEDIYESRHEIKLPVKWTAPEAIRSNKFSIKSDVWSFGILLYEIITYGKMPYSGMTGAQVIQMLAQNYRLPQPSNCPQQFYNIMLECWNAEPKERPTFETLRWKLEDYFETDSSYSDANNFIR

[5] = target: T4, Acyl-CoA dehydrogenase family member 11 (Homo sapiens, UniProt Q709F0)
T4 sequence (Q709F0 whole entry): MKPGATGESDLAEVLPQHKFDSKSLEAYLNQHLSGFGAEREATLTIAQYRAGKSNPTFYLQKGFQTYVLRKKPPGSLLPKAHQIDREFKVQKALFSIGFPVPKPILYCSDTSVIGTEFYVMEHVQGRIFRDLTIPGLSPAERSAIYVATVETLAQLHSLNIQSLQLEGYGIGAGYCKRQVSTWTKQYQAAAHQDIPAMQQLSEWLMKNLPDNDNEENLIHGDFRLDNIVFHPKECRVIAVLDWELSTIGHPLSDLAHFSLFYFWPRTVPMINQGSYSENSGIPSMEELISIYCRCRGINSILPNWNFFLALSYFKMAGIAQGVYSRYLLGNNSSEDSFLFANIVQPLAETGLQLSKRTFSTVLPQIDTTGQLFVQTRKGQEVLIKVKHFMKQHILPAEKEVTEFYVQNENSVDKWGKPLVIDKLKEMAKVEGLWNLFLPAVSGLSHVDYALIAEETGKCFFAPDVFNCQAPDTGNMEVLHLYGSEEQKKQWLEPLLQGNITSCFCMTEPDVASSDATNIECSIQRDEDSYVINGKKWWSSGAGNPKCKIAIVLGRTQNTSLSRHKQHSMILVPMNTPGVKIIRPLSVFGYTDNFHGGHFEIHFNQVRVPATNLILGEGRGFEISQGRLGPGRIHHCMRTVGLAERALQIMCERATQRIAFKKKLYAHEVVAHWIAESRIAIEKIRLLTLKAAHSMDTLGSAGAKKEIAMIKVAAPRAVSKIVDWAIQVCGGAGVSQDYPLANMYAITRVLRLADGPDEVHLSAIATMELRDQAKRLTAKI
Note: in the data inactive means no Kd found up to 30 µM.

| Compound | Kd [1] | Kd [2] | Kd [3] | Kd [4] | Kd [5] |
| --- | --- | --- | --- | --- | --- |
| Cc1cccc(-c2nn3c(c2-c2ccnc4ccc(C(N)=O)cc24)CCC3)n1 [GALUNISERTIB] | > 30 µM (inactive) | > 30 µM (inactive) | > 30 µM (inactive) | > 30 µM (inactive) | > 30 µM (inactive) |
| CCn1cc(-c2ccnc3[nH]c(-c4cccc(CN(C)C)c4)cc23)c(-c2ccc(NC(=O)N(C)C)cc2)n1 [GSK-1070916] | 22.7 µM (active) | > 30 µM (inactive) | > 30 µM (inactive) | > 30 µM (inactive) | > 30 µM (inactive) |
| COc1ccc(S(=O)(=O)N(C(C)=O)c2ccccc2/C=C/c2cc[n+]([O-])cc2)cc1 [HMN-214] | > 30 µM (inactive) | > 30 µM (inactive) | > 30 µM (inactive) | > 30 µM (inactive) | > 30 µM (inactive) |
| CNC(=O)c1cccc2cc(Oc3ccnc4cc(OCC5(N)CC5)c(OC)cc34)ccc12 [LUCITANIB] | > 30 µM (inactive) | > 30 µM (inactive) | > 30 µM (inactive) | > 30 µM (inactive) | > 30 µM (inactive) |
| NC1(c2ccc(-c3nc4ccn5c(=O)[nH]nc5c4cc3-c3ccccc3)cc2)CCC1 [MK-2206] | > 30 µM (inactive) | > 30 µM (inactive) | > 30 µM (inactive) | > 30 µM (inactive) | > 30 µM (inactive) |
| Cn1cc(-c2cnc3ccc4ccc(CS(=O)(=O)NCc5ccccn5)cc4c(=O)c3c2)cn1 [MK-8033] | > 30 µM (inactive) | > 30 µM (inactive) | > 30 µM (inactive) | > 30 µM (inactive) | > 30 µM (inactive) |
| CCOc1cc2ncc(C#N)c(Nc3ccc(F)c(Cl)c3)c2cc1NC(=O)/C=C/CN(C)C [PELITINIB] | > 30 µM (inactive) | > 30 µM (inactive) | > 30 µM (inactive) | > 30 µM (inactive) | > 30 µM (inactive) |
| Cc1nc(Nc2n[nH]c3c2CN(C(=O)N[C@H](CN(C)C)c2ccccc2)C3(C)C)c2sccc2n1 [PF-03758309] | > 30 µM (inactive) | > 30 µM (inactive) | > 30 µM (inactive) | > 30 µM (inactive) | > 30 µM (inactive) |
| Cc1cnc(NC(=O)Nc2cc(Br)c(C)cc2OC[C@@H]2CNCCO2)cn1 [RABUSERTIB] | > 30 µM (inactive) | > 30 µM (inactive) | > 30 µM (inactive) | > 30 µM (inactive) | > 30 µM (inactive) |
| CO[C@H]1C[C@@H]2CC[C@@H](C)[C@@](O)(O2)C(=O)C(=O)N2CCCC[C@H]2C(=O)O[C@H]([C@H](C)C[C@@H]2CC[C@@H](OP(C)(C)=O)[C@H](OC)C2)CC(=O)[C@H](C)/C=C(\C)[C@@H](O)[C@@H](OC)C(=O)[C@H](C)C[C@H](C)/C=C/C=C/C=C/1C [RIDAFOROLIMUS] | > 30 µM (inactive) | > 30 µM (inactive) | > 30 µM (inactive) | > 30 µM (inactive) | > 30 µM (inactive) |
| N#CC1(c2ccc(NC(=O)c3cccnc3NCc3ccncc3)cc2)CCCC1 [RIVOCERANIB] | > 30 µM (inactive) | > 30 µM (inactive) | > 30 µM (inactive) | > 30 µM (inactive) | > 30 µM (inactive) |
| O=c1[nH]ccc2cc(OC3CCNCC3)ccc12 [SAR-407899 FREE BASE] | > 30 µM (inactive) | > 30 µM (inactive) | > 30 µM (inactive) | > 30 µM (inactive) | > 30 µM (inactive) |
| Cn1cc(-c2cnn3c(N)c(Br)c([C@@H]4CCCNC4)nc23)cn1 [SCH-900776] | > 30 µM (inactive) | > 30 µM (inactive) | > 30 µM (inactive) | > 30 µM (inactive) | > 30 µM (inactive) |
| CO[C@H]1C[C@@H]2CC[C@@H](C)[C@@](O)(O2)C(=O)C(=O)N2CCCC[C@H]2C(=O)O[C@H]([C@H](C)C[C@@H]2CC[C@@H](O)[C@H](OC)C2)CC(=O)[C@H](C)/C=C(\C)[C@@H](O)[C@@H](OC)C(=O)[C@H](C)C[C@H](C)/C=C/C=C/C=C/1C [SIROLIMUS] | > 30 µM (inactive) | > 30 µM (inactive) | > 30 µM (inactive) | > 30 µM (inactive) | > 30 µM (inactive) |
| CO[C@H]1C[C@@H]2CC[C@@H](C)[C@@](O)(O2)C(=O)C(=O)N2CCCC[C@H]2C(=O)O[C@H]([C@H](C)C[C@@H]2CC[C@@H](OC(=O)C(C)(CO)CO)[C@H](OC)C2)CC(=O)[C@H](C)/C=C(\C)[C@@H](O)[C@@H](OC)C(=O)[C@H](C)C[C@H](C)/C=C/C=C/C=C/1C [TEMSIROLIMUS] | > 30 µM (inactive) | > 30 µM (inactive) | > 30 µM (inactive) | > 30 µM (inactive) | > 30 µM (inactive) |
| COc1cc2c(Nc3ccc(Cl)c(Cl)c3F)ncnc2cc1OC[C@@H]1C[C@@H]2CN(C)C[C@@H]2C1 [TESEVATINIB] | > 30 µM (inactive) | > 30 µM (inactive) | > 30 µM (inactive) | > 30 µM (inactive) | > 30 µM (inactive) |
| O=C(Cc1ccc(-c2ccc(OCCN3CCOCC3)cc2)cn1)NCc1ccccc1 [TIRBANIBULIN] | > 30 µM (inactive) | > 30 µM (inactive) | > 30 µM (inactive) | > 30 µM (inactive) | > 30 µM (inactive) |
| Cc1cc(Nc2ncnc3ccc(NC4=NC(C)(C)CO4)cc23)ccc1Oc1ccn2ncnc2c1 [TUCATINIB] | > 30 µM (inactive) | > 30 µM (inactive) | > 30 µM (inactive) | > 30 µM (inactive) | > 30 µM (inactive) |
